Data on one sequence can be found in publication PMC2999418, “Biological Activity and Binding Site Characteristics of the PA1b Entomotoxin on Insects from Different Orders” (Journal of Insect Science, 2007).

The target of series [1] is PA1b binding protein on membrane extracts. In words: 125I-PA1b binding (competition) on insect membrane extracts. Set-up: species or system Drosophila melanogaster. The following applies: D. melanogaster membrane extracts; competition with purified 3741 isoform. The method, then:
(§1) The isolation of membrane proteins for binding studies was performed as described by Gressent et al. ([2003]). For PA1b degradation tests, insect extracts were prepared as follows, 1 g of insects were ground with a mortar and pestle in liquid nitrogen. The resulting powder was resuspended in 2 ml of extraction buffer (20 mM Tris-HCl pH 8; 0.25 M sucrose; 2 mM MgCl2). The slurry was centrifuged for 2 min at 1000 g, and the supernatant was stored at -2O°C until required. All the operations were performed at 4°C.
(§2) The peptidic toxin PA1b-3471 isoform was labelled with I^125 to a specific radioactivity of about 900 Ci.mmor^-1, and then used for binding studies with membrane extracts, according to Gressent et al. ([2003]).
(§3) PA1b binding activity was present in all insect species, except for the resistant weevil strains and the pea specific pest Bruchus pisorum, regardless of the sensitivity or insensitivity of these insects to PA1b toxicity, as evaluated from our insect bioassays. […] The relative abundance of the binding sites was also slightly different in this group of species, varying from 10 pmol/mg of protein for T. pretiosum to a maximum of 79 pmol/mg of protein for M. persicae.

The target is the same in series [2]. The description is as above. On the set-up: species or system Bruchus pisorum. The settings on record: B. pisorum membrane extracts; competition with purified 3741 isoform. The procedure:
as §1, §2, §3

The test system of series [3] is M. brassicae protein extracts. Put plainly: PA1b degradation assay with total insect protein extract. Format: in vitro ADME, Mamestra brassicae. The settings on record: 200 µg M. brassicae (L3) total protein extract, 10 µg PA1b, pH 3 to 9, 30°C, one night incubation; C18 HPLC; data not shown. The method, then:
as §1
PA1b degradation assays were performed using 10 µg of peptide (PA1b isoform mixture) in a final volume of 100 µl buffer. […]
For all assays, after a one night incubation, 150 µl of methanol were added to the mixture and incubated for 60 min at 4°C. […] PA1b peptide isoforms were detected by their absorbance at 210 nm, quantified by the measurement of the peak area and with reference to known quantities of pure peptide isoform used as standards.

In series [4] the target is PA1b binding protein on membrane extracts. Put plainly: 125I-PA1b binding (competition) on insect membrane extracts. On the set-up: species or system Aphis gossypii. The settings on record: A. gossypii membrane extracts; competition with purified 3741 isoform. The method, then:
as §1, §2, §3

A further series deals with Drosophila melanogaster. The settings on record: cited from earlier work. The procedure:
However, diet is not sufficient alone to explain insensitivity, as the three aphid species tested were assayed on the same artificial diet with very different results. We can thus suppose ...

Series [5] has as its target PA1b binding protein on membrane extracts. Put plainly: 125I-PA1b binding (competition) on insect membrane extracts. The following applies: A. pisum membrane extracts; competition with purified 3741 isoform. On the set-up: species or system Acyrthosiphon pisum. The method, then:
as §1, §2, §3

Series [6] shares this target. The series is described as above. On the set-up: species or system Mamestra brassicae. The following applies: M. brassicae membrane extracts; competition with purified 3741 isoform. The procedure: as §1, §2, §3
Series [7] shares this target. The description is as above. The following applies: E. kuehniella membrane extracts; competition with purified 3741 isoform. On the set-up: species or system Ephestia kuehniella. The procedure:
as §1, §2, §3

The next series relates to Trichogramma pretiosum. In words: Trichogramma development from eggs to adults on artificial diet with toxin. Format: in vivo. The following applies: PA1b added to artificial diet; no difference in developmental times compared to control. The method, then: Trichogramma pretiosium. T191 (Hymenoptera) were grown using the artificial diet described in Grenier et al. ([1998]). The toxin was incorporated into the diet, and the development of insects was monitored from eggs to adults.
(§4) All toxicity assays were carried out using a mixture of PA1b isoforms (98% purity by HPLC). All tests were performed on at least 30 insects for assays and for control test (without toxin), except for the three aphid species (50 insects) and for Trichogramma (more than 300 eggs by assays). When adults were used, the insects were synchronized at the imaginal molt. The statistical analyses were performed using the JMP software (SAS, Grégy-sur-Yerres FRA).

The test system of the next series is Tribolium castaneum. Put plainly: Red flour beetle adult toxicity test, toxin mixed into diet. In kind it is in vivo. The settings on record: 1000 µg per g of food, feeding for 15 days. The procedure:
The red flour beetle Tribolium castaneum (Coleoptera), was provided by François Bonneton (Centre de Génétique Moléculaire Cellulaire, Lyon, France). Tests were performed on adults by mixing the toxin into the diet (wheat flour 95%, yeast extract 5%).
as §4

A further series deals with C. albicans. In words: Antifungal test, fungal growth. In kind it is cell-based. The following applies: increasing toxin concentration up to 64 µg-ml^-1, 24 and 48 hours. The method, then:
(§5) A possible antimicrobial and antifungal activity of PA1b was next tested on four bacterial and three fungal species. The experiments were done using an increasing toxin concentration, up to 64 µg-ml^-1.

The next series relates to A. famigatus. Put plainly: Antifungal test, fungal growth. In kind it is cell-based. The settings on record: increasing toxin concentration up to 64 µg-ml^-1, 24 and 48 hours. The procedure:
as §5

In a further series the test system is C. glabrata. Put plainly: Antifungal test, fungal growth. The settings on record: increasing toxin concentration up to 64 µg-ml^-1, 24 and 48 hours. Format: cell-based. The procedure:
as §5

The Kd is the equilibrium constant for the complex coming apart. A high value points to lower affinity. “ASCNGVCSPFEMPPCGTSACRCIPVGLVIGYCR NPSG (bicyclic or more) [PA1b, plant peptide of 37 amino acids purified from pea (Pisum sativum) seeds; entomotoxic cystine-knot peptide with three disulfide bonds]”: the Kd is 16 nM in series [1]; 39 nM in series [4]; 58 nM in [5]; 20 nM in [6]; 20 nM in [7]. Further, in series [2], the Kd / binding entry is recorded as “no binding detectable”. In addition, the “recovered PA1b after incubation with insect proteins versus heat-denatured control” value in series [3] is “without any difference between control and test assays”. Moreover, the “toxicity to larvae grown on a fruit-based mixture” value in the series on Drosophila melanogaster (fruit-based mixture diet, dose similar to that used on other insects, delayed larval development, increased larval mortality, ref Gressent, unpublished results) is “significantly toxic”. Also, the “sensitivity to the toxin” value with Drosophila melanogaster (ref Delobel et al.1998) is reported as “insensitive”. Further, the “growth and development from eggs to adults” value with Trichogramma pretiosum was “normal growth”. Further, in the series with Tribolium castaneum, the effects on adults entry is listed as “no effects were detectable”. In the series on Tribolium castaneum, the survival of adults entry is “all insects survived”. Besides, the “effect on fungal growth” value in the series with C. albicans, with A. famigatus and with C. glabrata was “no effect was detected” throughout.
